Drawing on BindingDB's records for doi:10.1021/acs.jmedchem.5b01939 (University of Messina, 2016), this text covers IC50 for four compounds.

Broadly, the pIC50 is the IC50 on a negative log10 scale, so that one unit is a factor of ten.

pIC50: −log10 of the molar value.

Assay [1] addresses T1, G protein-coupled receptor kinase 5 (Bos taurus, UniProt P43249). Briefly: (§1) Inhibition of bovine GRK5 assessed as decrease in phosphorylation of tubulin after 5 mins by SDS-PAGE analysis.
The target of assay [2] is T2, Rhodopsin kinase GRK1 (Bos taurus, UniProt P28327).
T2 sequence (P28327 whole entry): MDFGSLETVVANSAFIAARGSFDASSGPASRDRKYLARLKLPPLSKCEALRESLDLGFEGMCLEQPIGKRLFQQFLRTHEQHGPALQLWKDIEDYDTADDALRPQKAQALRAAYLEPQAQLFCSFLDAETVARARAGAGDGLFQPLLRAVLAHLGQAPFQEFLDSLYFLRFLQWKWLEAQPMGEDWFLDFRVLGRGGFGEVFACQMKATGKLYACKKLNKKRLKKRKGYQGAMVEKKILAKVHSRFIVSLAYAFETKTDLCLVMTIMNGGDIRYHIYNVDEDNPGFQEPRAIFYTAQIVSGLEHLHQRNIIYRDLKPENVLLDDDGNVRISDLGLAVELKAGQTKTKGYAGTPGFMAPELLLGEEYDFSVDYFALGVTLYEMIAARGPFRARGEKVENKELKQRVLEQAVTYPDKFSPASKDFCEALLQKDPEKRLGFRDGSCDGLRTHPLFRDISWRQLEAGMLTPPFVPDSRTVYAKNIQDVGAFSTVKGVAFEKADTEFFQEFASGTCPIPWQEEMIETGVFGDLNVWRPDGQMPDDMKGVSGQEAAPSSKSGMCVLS
In words: (§2) Inhibition of bovine GRK1 (1 to 535 residues) assessed as decrease in phosphorylation of tubulin after 5 mins by SDS-PAGE analysis.

Assay [3] deals with T1, G protein-coupled receptor kinase 5. In words: ChEBML_1612831. As to the method: as §1
The target in assay [4] is T2, Rhodopsin kinase GRK1. Briefly: Inhibition of C-terminal hexahistidine tagged bovine GRK1 (535 residues) assessed as decrease in phosphorylation of light-activated bovine rod outer segments preincubated for 30 mins followed by ATP addition.
The target in assay [5] is T1, G protein-coupled receptor kinase 5. In words: Inhibition of C-terminal hexahistidine tagged bovine GRK5 (561 residues) assessed as decrease in phosphorylation of light-activated bovine rod outer segments preincubated for 30 mins followed by ATP addition.
Assay [6] addresses T2, Rhodopsin kinase GRK1. In words: ChEBML_1612830. As to the method:
as §2

In assay [7] the target is T1, G protein-coupled receptor kinase 5. In words: Inhibition of C-terminal hexahistidine tagged bovine GRK5 (561 residues) assessed as decrease in phosphorylation of tubulin preincubated for 30 mins followed by ATP addition.
Assay [8] addresses T2, Rhodopsin kinase GRK1. Briefly: Inhibition of C-terminal hexahistidine tagged bovine GRK1 (535 residues) assessed as decrease in phosphorylation of tubulin preincubated for 30 mins followed by ATP addition.

T1 sequence (P43249 whole entry): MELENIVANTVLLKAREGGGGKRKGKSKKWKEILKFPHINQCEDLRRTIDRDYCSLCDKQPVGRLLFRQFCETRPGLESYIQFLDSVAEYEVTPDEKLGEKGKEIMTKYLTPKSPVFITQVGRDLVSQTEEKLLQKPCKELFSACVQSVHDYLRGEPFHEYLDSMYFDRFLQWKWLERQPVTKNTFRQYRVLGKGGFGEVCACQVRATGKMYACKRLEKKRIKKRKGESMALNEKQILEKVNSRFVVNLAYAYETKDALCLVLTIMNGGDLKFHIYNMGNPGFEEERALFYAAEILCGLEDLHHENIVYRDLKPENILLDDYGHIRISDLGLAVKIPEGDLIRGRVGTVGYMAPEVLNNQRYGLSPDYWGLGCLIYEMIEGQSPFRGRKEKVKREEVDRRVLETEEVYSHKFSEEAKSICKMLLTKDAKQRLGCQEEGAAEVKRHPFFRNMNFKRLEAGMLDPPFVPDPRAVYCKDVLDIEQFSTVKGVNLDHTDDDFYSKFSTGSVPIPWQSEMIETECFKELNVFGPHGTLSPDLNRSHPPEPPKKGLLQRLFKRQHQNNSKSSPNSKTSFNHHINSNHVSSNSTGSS

As for `CC1=C(C(=O)Nc2ccc3[nH]ncc3c2)C(c2ccc3ccccc3c2)CC(=O)N1` (centres undefined) [N-(1H-indazol-5-yl)-2-methyl-4-(naphthalen-2-yl)-6-oxo-1,4,5,6-tetrahydropyridine-3-carboxamide], the pIC50 was 4.20 in assay [1] and 3.10 on Rhodopsin kinase GRK1 [2].

`CC1=C(C(=O)Nc2ccc3[nH]ncc3c2)C(c2ccc(Cl)c(Cl)c2)CC(=O)N1` (centres undefined) [4-(3,4-Dichlorophenyl)-N-1H-indazol-5-yl-2-methyl-6-oxo-1,4,5,6-tetrahydropyridine-3-carboxamide] showed a pIC50 in assay [3] of 4.10.

Turning to `CC1=C(C(=O)Nc2cc(Cl)c3[nH]ncc3c2)C(c2ccc(C(F)(F)F)cc2)CC(=O)N1` (centres undefined) [N-(7-chloro-1H-indazol-5-yl)-2-methyl-6-oxo-4-[4-(trifluoromethyl)phenyl]-1,4,5,6-tetrahydropyridine-3-carboxamide], the pIC50 in assay [1] is 4.40.

As for `Fc1ccc([C@@H]2CCNC[C@H]2COc2ccc3c(c2)OCO3)cc1` [PAROXETINE], the pIC50 on Rhodopsin kinase GRK1 [4] was 3.50; in assay [5], 3.60; on Rhodopsin kinase GRK1 [6] it was 3.40; in assay [7], 3.90; at Rhodopsin kinase GRK1 [8] it was 3.80.
